Key:
ZO-1 = assay: Real-time RT-PCR of wound-healing marker ZO-1 in colonic epithelial cells; type: cell-based; conditions: Caco-2 cells; 50 and 100 μg/ml; 3 days; FIG. 4
Protocol: (§1) In order to confirm the expression level of the wound-healing marker in colonic epithelial cells (Caco-2 cell, ATCC® HTB-37™) by the peptide according to the present invention, colonic epithelial cells were dispensed in an amount of 5×10^6 cells/well in a 6-well plate and then cultured for 24 hours in DMEM (Dulbecco's Modified Eagle Medium, Gibco). The cells were treated with the peptides of SEQ ID NOS: 1, 2, and 3 at concentrations of 50 and 100 μg/ml and then cultured for up to 3 days. After 3 days, the cells were harvested and the gene expression levels of E-cadherin protein, which is highly expressed in colonic epithelial cells, and ZO-1 protein, which is highly expressed at the tight junction between colonic epithelial cells, were measured through real-time RT-PCR.
(§2) RNA was extracted from the obtained cells using TRIzol, and cDNA was synthesized using a kit from Thermo Scientific (cat. No. K1641). The same amount of cDNA was amplified by 40 cycles at 95° C.-60° C. using a SYBR green PCR master mix and a StepOnePlus™ Real-Time PCR System available from Applied Biosystems, and the ΔΔct values of individual groups were compared. The nucleotide sequences of the PCR primers used for amplification of each gene are as follows.

E-cadherin = assay: Real-time RT-PCR of wound-healing marker E-cadherin in colonic epithelial cells; type: cell-based; conditions: Caco-2 cells; 50 and 100 μg/ml; 3 days; FIG. 4
Protocol: as §1, §2

[1] = test system: colonic epithelial cells (Caco-2 cell); assay: Proliferation of colonic epithelial cells (CCK-8); type: cell-based; conditions: 100 μM, 3rd day, FIG. 5
Protocol: In order to confirm the proliferation and migration in colonic epithelial cells (Caco-2 cell, ATCC® HTB-37™) by the peptide according to the present invention, the cells were dispensed in an amount of 5×10^3 cells/well in a 96-well plate and then cultured for 24 hours in DMEM (Dulbecco's Modified Eagle Medium, Gibco). The peptides (SEQ ID NOS: 1, 2, and 3) were dispensed at a concentration of 100 μM in the cells and then cultured for up to 3 days at intervals of 1 day. The cell count was measured using a CCK-8 (Cell Counting Kit-8, CK04, Dojindo Lab.). After 1, 2, and 3 days, the medium containing the peptide was removed, 10% of a CCK-8 solution was added to fresh DMEM, and 100 μl thereof was then dispensed. After 1 hour and 30 minutes, absorbance was measured at 450 nm.

type IV collagen = assay: Slot blotting, selectivity to collagen types: type IV (Experimental Example 2); type: binding; conditions: peptide up to 100 μg/mL, FIG. 3
Protocol: (§3) In order to confirm the selectivity of peptides of SEQ ID NOS: 1 to 3 to collagen types, slot blotting was performed for types I, IV and VII collagen. The NC membrane was activated with TBST, and the peptides of SEQ ID NOS: 1, 2 and 3 were placed in each well at different concentrations (5, 10, 25, 50, and 100 μg/mL) and allowed to bind to the NC membrane in a vacuum for 2 hours. A 1% solution of each of types I, IV and VII collagen (MyBioSource, Inc., San Diego, CA, USA, MBS2018615) was added to the peptide-bound membrane and allowed to bind to the membrane in a vacuum for 2 hours. The membrane was washed with TBST, and the membrane to which the peptides and types I, IV, and VII collagen were attached was allowed to react with a primary rabbit anti-human type VII collagen antibody (MyBioSource, Inc., San Diego, CA, USA, MBS2004594) at a dilution ratio of 1:800 and with a secondary antibody goat anti-rabbit Ig G (BETHYL Lab., Montgomery, TX, USA, A90-116P) at a dilution ratio of 1:5000. The reacted membrane was washed with TBST, and a chemiluminescence test was performed using WEST-one.

type VII collagen [2] = biological target: T1, type VII collagen (Homo sapiens, UniProt Q02388); assay: Slot blotting, binding ability to type VII collagen (Experimental Example 1); conditions: peptide at 5, 10 and 20 μg/mL, FIG. 2
T1 construct: purchased MyBioSource, Inc. MBS2018615
T1 sequence (Q02388 17-2944): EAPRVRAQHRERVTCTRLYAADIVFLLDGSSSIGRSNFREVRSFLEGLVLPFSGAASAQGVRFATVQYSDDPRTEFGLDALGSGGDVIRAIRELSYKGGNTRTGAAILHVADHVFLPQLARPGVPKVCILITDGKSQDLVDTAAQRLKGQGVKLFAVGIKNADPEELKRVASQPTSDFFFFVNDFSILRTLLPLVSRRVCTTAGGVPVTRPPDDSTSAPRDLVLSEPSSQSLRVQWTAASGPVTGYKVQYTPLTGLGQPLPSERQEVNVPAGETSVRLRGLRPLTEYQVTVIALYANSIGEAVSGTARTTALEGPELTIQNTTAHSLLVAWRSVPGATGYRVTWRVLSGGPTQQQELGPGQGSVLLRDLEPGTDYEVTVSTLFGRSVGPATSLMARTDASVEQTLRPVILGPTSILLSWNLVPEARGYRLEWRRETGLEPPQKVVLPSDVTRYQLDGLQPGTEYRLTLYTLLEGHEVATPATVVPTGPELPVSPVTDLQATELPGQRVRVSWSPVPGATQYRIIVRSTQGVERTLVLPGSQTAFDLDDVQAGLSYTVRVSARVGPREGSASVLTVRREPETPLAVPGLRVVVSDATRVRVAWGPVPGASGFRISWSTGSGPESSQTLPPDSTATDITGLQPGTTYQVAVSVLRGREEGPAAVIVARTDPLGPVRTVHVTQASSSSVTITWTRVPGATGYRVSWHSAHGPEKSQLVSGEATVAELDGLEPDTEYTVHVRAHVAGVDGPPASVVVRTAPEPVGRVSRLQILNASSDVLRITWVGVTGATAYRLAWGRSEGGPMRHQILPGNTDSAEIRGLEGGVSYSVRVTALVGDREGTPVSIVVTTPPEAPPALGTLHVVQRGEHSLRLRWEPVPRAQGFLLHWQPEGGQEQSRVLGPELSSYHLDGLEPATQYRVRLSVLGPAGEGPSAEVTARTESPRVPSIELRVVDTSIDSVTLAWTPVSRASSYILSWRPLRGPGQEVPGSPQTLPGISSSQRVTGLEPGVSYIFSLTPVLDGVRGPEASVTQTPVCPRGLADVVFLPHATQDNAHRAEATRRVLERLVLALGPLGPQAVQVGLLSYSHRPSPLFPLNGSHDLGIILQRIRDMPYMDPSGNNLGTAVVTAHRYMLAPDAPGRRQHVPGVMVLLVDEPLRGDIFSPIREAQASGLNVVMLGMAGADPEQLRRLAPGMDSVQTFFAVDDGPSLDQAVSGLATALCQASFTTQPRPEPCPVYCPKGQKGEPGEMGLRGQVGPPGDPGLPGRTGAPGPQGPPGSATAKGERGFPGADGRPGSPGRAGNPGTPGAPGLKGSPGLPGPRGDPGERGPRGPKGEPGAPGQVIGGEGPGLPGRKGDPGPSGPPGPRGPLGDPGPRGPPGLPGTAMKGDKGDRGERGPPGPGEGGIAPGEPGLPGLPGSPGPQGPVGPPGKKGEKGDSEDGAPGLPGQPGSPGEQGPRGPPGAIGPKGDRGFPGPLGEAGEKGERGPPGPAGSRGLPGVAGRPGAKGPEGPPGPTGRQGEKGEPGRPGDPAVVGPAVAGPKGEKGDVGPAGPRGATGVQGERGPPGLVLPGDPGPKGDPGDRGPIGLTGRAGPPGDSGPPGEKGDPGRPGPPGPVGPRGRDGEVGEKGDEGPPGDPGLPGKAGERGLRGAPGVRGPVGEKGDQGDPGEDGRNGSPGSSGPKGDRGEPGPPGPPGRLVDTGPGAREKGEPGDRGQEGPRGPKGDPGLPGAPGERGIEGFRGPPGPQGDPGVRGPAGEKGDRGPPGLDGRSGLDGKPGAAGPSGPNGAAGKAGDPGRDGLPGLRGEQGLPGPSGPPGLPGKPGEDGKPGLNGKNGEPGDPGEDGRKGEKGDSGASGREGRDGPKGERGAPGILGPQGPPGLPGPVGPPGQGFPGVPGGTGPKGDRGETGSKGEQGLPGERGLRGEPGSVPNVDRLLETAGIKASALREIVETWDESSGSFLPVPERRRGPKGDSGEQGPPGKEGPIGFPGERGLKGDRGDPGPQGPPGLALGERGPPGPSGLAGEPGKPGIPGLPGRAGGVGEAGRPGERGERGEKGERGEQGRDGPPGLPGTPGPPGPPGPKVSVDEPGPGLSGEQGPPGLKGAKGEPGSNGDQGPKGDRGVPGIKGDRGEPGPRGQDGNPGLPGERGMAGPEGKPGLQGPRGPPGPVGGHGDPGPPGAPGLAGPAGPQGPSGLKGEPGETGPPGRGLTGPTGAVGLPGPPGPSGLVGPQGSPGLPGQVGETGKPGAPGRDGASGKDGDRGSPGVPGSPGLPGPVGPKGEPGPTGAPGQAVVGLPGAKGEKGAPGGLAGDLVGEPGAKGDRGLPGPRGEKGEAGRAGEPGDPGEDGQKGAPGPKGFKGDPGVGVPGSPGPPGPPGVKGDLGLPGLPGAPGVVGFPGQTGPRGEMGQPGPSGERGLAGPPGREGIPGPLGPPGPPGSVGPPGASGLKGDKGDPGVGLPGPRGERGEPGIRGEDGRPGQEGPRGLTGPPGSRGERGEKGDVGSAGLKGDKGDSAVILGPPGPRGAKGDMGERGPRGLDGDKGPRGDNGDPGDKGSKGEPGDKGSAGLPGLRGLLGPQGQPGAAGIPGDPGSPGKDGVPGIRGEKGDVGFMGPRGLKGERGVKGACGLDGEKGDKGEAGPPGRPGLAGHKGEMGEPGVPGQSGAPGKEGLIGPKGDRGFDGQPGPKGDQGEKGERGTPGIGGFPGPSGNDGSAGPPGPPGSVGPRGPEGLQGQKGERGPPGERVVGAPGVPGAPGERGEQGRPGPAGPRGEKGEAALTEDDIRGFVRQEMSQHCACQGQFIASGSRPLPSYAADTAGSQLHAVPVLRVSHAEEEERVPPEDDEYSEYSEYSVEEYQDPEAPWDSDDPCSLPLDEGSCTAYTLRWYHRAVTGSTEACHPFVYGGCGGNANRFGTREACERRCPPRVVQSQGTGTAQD
Protocol: Slot blotting was performed to confirm the ability of the peptides of SEQ ID NOS: 1 and 3 to bind to type VII collagen. The NC membrane was activated with TBST, and the peptides of SEQ ID NOS: 1 and 3 were placed in each well at different concentrations (5, 10, and 20 μg/mL) and allowed to bind to the NC membrane in a vacuum for 2 hours. A 1% solution of type VII collagen (MyBioSource, Inc., San Diego, CA, USA, MBS2018615) was added to the peptide-bound membrane and allowed to bind to the membrane in a vacuum for 2 hours. After washing the membrane with TBST, the membrane to which the peptide and type VII collagen were attached was allowed to react with a primary rabbit anti-human type VII collagen antibody (MyBioSource, Inc., San Diego, CA, USA, MBS2004594) at a dilution ratio of 1:800 and with a secondary antibody goat anti-rabbit Ig G (BETHYL Lab., Montgomery, TX, USA, A90-116P) at a dilution ratio of 1:5000. The reacted membrane was washed with TBST, and a chemiluminescence test was performed using WEST-one. Based on the results of measurement of the ability of the peptide to bind to type VII collagen depending on the peptide concentration, when the concentration of the peptide of SEQ ID NO: 1 was 10 μg/mL or more or the concentration of the peptide of SEQ ID NO: 3 was 5 μg/mL or more, the ability thereof to bind to type VII collagen was confirmed (FIG. 2).

Caco-2 cells = assay: Scratch migration of colonic epithelial cells; type: cell-based; conditions: Caco-2 scratch, 100 μM, FIG. 6
Protocol: In order to measure cell migration ability, Caco-2 cells (1×10^6 cells) were placed in a 6-well plate and cultured in DMEM supplemented with 10% fetal bovine serum (FBS) and 1% antibiotic-antimycotic solution (Gibco, Grand Island, N.Y., USA). The cells were washed with PBS and allowed to stand overnight in a medium containing 2% FBS. The central portion of the cell layer was scratched using a sterile 200 μl plastic pipette tip. The scratched cell layer was washed twice with PBS to remove unadhered cells. Each of the peptides of SEQ ID NOS: […] at a concentration of 100 μM to the medium, followed by culture for up to 48 hours. The extent of cell migration toward the center from the scratched edges was measured using an Olympus CKX41 inverted microscope (magnification: ×20).

type I collagen = biological target: T2, type I collagen (Homo sapiens, UniProt P02452+P08123); assay: Slot blotting, selectivity to collagen types: type I (Experimental Example 2); type: binding; conditions: peptide at 5, 10, 25, 50 and 100 μg/mL, FIG. 3
T2 construct: purchased MyBioSource, Inc
T2 sequence (P02452 162-1218): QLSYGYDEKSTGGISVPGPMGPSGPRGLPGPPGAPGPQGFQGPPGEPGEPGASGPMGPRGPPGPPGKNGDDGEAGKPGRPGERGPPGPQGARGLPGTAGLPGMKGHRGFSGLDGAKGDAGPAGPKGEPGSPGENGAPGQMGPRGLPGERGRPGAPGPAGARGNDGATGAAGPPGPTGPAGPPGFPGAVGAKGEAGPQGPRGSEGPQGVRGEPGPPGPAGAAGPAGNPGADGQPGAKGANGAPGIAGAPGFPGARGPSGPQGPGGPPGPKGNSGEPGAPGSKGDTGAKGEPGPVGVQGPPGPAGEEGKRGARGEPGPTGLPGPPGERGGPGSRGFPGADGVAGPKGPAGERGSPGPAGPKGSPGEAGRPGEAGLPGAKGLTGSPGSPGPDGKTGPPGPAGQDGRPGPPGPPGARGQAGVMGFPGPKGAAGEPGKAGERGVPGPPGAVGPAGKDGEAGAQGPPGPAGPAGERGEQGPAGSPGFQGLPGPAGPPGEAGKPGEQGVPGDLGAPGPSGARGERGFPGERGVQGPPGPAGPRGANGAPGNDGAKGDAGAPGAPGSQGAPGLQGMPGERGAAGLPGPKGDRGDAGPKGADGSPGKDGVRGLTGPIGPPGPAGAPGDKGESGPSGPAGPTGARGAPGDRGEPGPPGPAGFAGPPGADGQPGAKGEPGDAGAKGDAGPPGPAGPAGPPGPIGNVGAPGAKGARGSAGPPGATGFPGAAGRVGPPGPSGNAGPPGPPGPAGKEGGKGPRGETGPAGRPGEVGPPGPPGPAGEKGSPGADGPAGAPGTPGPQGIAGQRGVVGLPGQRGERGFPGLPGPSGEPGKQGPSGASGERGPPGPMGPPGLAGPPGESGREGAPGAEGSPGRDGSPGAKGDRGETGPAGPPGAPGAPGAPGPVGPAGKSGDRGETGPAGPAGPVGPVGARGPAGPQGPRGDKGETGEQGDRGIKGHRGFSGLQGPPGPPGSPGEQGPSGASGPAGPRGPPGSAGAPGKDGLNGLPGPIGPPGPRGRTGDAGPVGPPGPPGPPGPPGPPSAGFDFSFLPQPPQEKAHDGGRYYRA
T2 sequence (P08123 80-1119): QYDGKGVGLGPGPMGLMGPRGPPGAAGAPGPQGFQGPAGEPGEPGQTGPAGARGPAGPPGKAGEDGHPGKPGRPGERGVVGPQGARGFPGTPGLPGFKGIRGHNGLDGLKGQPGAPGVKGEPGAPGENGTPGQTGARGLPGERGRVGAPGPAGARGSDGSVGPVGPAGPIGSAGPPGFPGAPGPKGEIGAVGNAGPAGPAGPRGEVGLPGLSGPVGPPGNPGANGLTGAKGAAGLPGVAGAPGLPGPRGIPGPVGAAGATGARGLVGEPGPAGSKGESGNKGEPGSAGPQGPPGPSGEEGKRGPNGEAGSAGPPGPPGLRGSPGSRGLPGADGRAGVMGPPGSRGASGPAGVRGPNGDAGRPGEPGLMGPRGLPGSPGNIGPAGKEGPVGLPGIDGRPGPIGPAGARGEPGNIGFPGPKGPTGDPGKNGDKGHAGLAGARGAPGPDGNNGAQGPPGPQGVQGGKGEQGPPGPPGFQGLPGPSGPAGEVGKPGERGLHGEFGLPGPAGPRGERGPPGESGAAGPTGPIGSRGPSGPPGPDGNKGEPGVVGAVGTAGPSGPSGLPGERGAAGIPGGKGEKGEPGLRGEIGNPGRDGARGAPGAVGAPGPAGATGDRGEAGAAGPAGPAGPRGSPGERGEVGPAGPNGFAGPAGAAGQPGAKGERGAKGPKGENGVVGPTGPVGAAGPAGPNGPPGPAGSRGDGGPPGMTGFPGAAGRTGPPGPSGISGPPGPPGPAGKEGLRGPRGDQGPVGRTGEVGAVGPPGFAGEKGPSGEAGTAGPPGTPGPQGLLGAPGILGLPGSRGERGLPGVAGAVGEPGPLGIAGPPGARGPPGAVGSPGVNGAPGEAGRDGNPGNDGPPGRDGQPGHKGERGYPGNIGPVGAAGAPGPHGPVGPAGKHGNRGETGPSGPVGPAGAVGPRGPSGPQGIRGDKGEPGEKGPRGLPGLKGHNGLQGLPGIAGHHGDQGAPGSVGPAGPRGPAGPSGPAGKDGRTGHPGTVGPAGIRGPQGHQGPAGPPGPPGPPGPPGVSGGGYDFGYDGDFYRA
Protocol: as §3

type VII collagen [3] = biological target: T1, type VII collagen; assay: Slot blotting, selectivity to collagen types: type VII (Experimental Example 2); type: binding
Protocol: as §3

LTEFPLRMRDWLKN (Human osteonectin 160-173) [SEQ ID NO: 3]
gene expression of ZO-1 (ZO-1): increased with an increase in the concentration of the peptide
gene expression of E-cadherin (E-cadherin): increased with an increase in the concentration of the peptide
cell proliferation rate compared to the control group (cells not treated with the peptide) [1]: 51%
binding to type IV collagen (type IV collagen): did not bind
peptide concentration at which the ability to bind to type VII collagen was confirmed (type VII collagen [2]): ≥ 5 µg/mL
migration area (Caco-2 cells; 2nd day): 56%
cell migration compared to cells not treated with the peptide (Caco-2 cells; up to 48 hours): increased cell migration
peptide concentration at which binding to type I collagen was observed (type I collagen): 100 µg/mL
selectivity to type VII collagen versus types I and IV collagen (type VII collagen [3]): higher selectivity to type VII collagen
peptide concentration at which binding to type VII collagen was observed (type VII collagen [3]; peptide at 5, 10, 25, 50 and 100 μg/mL, FIG. 3): at least 10 μg/mL

— US12545704B2, “Peptide for treating inflammation and wounds” (NIBEC CO., LTD., priority 2019, dated 2026)
